Test results as given in US11999755B1, “Effective anticancer drug candidate of dinuclear palladium (II) bis-dihydrozone malonyl complex” (KING FAISAL UNIVERSITY, priority 2024, dated 2024).

How the values were obtained:
[1] = test system: MCF7 (breast adenocarcinoma); test: SRB anticancer assay, MCF-7; assay type: cell-based, human; conditions: for IC50: SRB stain, 48 hours at 37° C., absorbance 564 nm
Text: (§1) Investigation for the bio-reactivity of H2L and PdL, as anticancer candidates, was achieved versus well documented human cancer cell lines, as three cancers entitled HepG2, MCF-7, and HCT-116, using the simplest tool SRB (sulforhodamine-B-stain). In particular, the most popular anticancer referenced drug (vinblastine) was used in the anticancer assay (the inhibited action of the cancer cells) to compare its bio-reactivity versus that one of H2L and PdL.
(§2) With HepG-2 (Hepatocellular carcinoma), HCT-116 (colon carcinoma), and MCF7 (breast adenocarcinoma), as human cancer cell lines, the antiproliferative reactivity of H2L and PdL was studied against the growth of these cancer cells by applying a spectrometric tool. Using SRB (sulforhodamine-B-stain) was essential in the spectrometric studies at a specific wavelength (564 nm, the optimized absorption wavelength). Recording the corresponded absorbance (A) at 564 nm was accomplished using a UV/Vis. spectrophotometer, UV-1800 mode Shimadzu with a mono-cell holder. With plates of 96-multiwell model, the culture of the current human cancer cell lines of 10^4 cells per well were accomplished followed by a gentle addition of DMSO solution of H2L or PdL the cultured wells of the cancer cell lines.
(§3) The resulting mixed solution of H2L or PdL solution with the subjected cancer cell line of human in SRB was assigned in incubated isolated atmosphere for 48 hours at 37° C. The isolated atmosphere was accomplished by CO2 gas bubbling with v/v […].
(§4) The same procedure was followed with vinblastine, as vinblastine was subjected as a reference anticancer agent to compare its reactivity against that one of the studied H2L and PdL. For WI-38, as the normal human fetal lung fibroblast, the pervious procedure of the cancer cell lines was applied for H2L and PdL to evaluate their selectivity index. Using Eq. 1, below, to derive the inhibited potential of H2L or PdL against the growth of the human cancer and normal cell lines through their effective concentration in M (IC50, the half effective concentration of H2L or PdL): […]

[2] = test system: HepG-2 (Hepatocellular carcinoma); test: SRB anticancer assay, HepG-2; assay type: cell-based, human; conditions: for IC50: SRB stain, 48 hours at 37° C., absorbance 564 nm
Text: as §1, §2, §3, §4

[3] = test system: HCT-116 (colon carcinoma); test: SRB anticancer assay, HCT-116; assay type: cell-based, human; conditions: for IC50: SRB stain, 48 hours at 37° C., absorbance 564 nm
Text: as §1, §2, §3, §4

[4] = test system: WI-38, normal human fetal lung fibroblast; test: SRB assay on normal cell line WI-38; assay type: cell-based; conditions: SRB stain, 48 hours at 37° C.
Text: as §1
as §2, with “lines. […]” for “lines.”

IC50 [1] [µM]	IC50 [2] [µM]	IC50 [3] [µM]	IC50 ([1]; Homo sapiens, MCF7) [µM]	IC50 ([2]; Homo sapiens, HepG2) [µM]	IC50 ([3]; Homo sapiens, HCT-116) [µM]	SMILES	Selectivity index MCF-7 ([1]; normal WI-38 versus MCF-7)	Selectivity index HepG-2 ([2]; normal WI-38 versus HepG-2)	Selectivity index HCT-116 ([3]; normal WI-38 versus HCT-116)	IC50 [4] [µM]
43.1	48.6	49.6	–	–	–	O=C(CC(=O)NN=C1C(=O)Nc2ccccc21)NN=C1C(=O)Nc2ccccc21 [H2L, malonyl dihydrazone-isatin ligand]	3.09	2.77	2.71	133 ± 0.75
–	–	–	4.12 ± 0.14	7.5 ± 0.1	13.3 ± 0.11	CC[C@]1(O)C[C@@H]2CN(CCc3c([nH]c4ccccc34)[C@@](C(=O)OC)(c3cc4c(cc3OC)N(C)[C@H]3[C@@](O)(C(=O)OC)[C@H](OC(C)=O)[C@]5(CC)C=CCN6CC[C@]43[C@@H]65)C2)C1 [Vinblastine, vinblastine, reference compound]	–	–	–	–
